Experimental data as given in patent publication US9687453B2, “Solid pharmaceutical composition” (KYORIN PHARMACEUTICAL CO., LTD., priority 2013, dated 2017).

Test: pH of acidic substance (2.5% liquid in water, pH meter)
Format: physicochemical
Details: 50 mg in 1,950 μL of water (concentration 2.5%)
Protocol: The “acidic substance” described herein is a substance which is dissolved in water to generate hydrogen ions.

pH: ≤ 3.5
SMILES: Cl.N[C@@H](CCC(=O)O)C(=O)O [L-glutamic acid hydrochloride]
